One assay has as its target T1, X-αR/βC (Bos taurus, UniProt Q00194, A200G/A344S/A378F/A555M/A612E/C169F/D157S/D193E/D538A/D588Q/D604M/DEL101-144/DEL91-95/E147F/E148K/E189Q/E196F/E230D/E231L/F201L/F214C/F374V/G160D/G591A/G605N/I156V/I181L/I182V/I235R/I530V/I609V/I611A/INS98[…]/K146T/K150R/K151W/K237N/K239I/K346C/K506R/K521Q/K551Q/K564R/K590Q/K598R/L195F/L199V/L210I/L351F/L583V/L593M/L606K/M175L/M213T/M592V/M602L/N161D/N165Y/N613A/P158Q/P173A/Q494R/Q599E/Q97T/R232A/R345F/R369K/R512K/S192D/S205C/S240R/S350C/S371E/S537T/S540G/T162I/T171A/T179I/T217L/T364M/T584A/V153G/V154F/V174S/V208I/V215I/V534A/V535L/Y194N/Y197L/Y541C).
T1 sequence (Q00194 with tags, fused parts or gaps DEL91-95/Q97T/INS98[…]/DEL101-144/K146T/E147F/E148K/K150R/K151W/V153G/V154F/I156V/D157S/P158Q/G160D/N161D/T162I/N165Y/C169F/T171A/P173A/V174S/M175L/T179I/I181L/I182V/E189Q/S192D/D193E/Y194N/L195F/E196F/Y197L/L199V/A200G/F201L/S205C/V208I/L210I/M213T/F214C/V215I/T217L/E230D/E231L/R232A/I235R/K237N/K239I/S240R/A344S/R345F/K346C/S350C/L351F/T364M/R369K/S371E/F374V/A378F/Q494R/K506R/R512K/K521Q/I530V/V534A/V535L/S537T/D538A/S540G/Y541C/K551Q/A555M/K564R/L583V/T584A/D588Q/K590Q/G591A/M592V/L593M/K598R/Q599E/M602L/D604M/G605N/L606K/I609V/I611A/A612E/N613A): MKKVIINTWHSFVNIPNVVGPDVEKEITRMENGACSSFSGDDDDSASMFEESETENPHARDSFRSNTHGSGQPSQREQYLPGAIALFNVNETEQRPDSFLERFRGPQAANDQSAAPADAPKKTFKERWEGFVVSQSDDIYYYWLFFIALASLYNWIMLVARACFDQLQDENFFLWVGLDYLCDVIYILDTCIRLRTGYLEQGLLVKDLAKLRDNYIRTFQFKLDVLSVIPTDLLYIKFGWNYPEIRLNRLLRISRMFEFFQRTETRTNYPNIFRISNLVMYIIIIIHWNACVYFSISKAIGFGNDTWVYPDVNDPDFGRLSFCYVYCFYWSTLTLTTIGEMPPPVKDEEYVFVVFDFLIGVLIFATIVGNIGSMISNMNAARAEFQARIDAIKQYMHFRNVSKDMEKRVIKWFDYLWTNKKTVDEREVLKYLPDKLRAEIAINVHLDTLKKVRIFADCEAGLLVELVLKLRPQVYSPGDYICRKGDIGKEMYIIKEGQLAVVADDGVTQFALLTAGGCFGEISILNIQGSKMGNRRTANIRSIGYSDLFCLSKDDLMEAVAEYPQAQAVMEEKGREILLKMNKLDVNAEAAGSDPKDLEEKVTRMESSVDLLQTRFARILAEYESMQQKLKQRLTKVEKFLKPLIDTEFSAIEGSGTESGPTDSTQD
The assay is described as follows: Macroscopic current dose–response in inside-out patches from Xenopus oocytes. The format is cell-based, chimera of bovine CNG1, catfish CNG2 and rat CNG5.

A further assay relates to ROON-S2. To be noted: mean ± SD, ref Tibbs et al. 1997, Tibbs et al. 1998; cited from earlier work.
For the next assay, the target named is T2, X-β homomeric channels (Bos taurus, UniProt Q00194, A200G/A344S/A378F/A555S/A582V/A612E/C169F/D157S/D193E/D502E/D538A/D577E/D588Q/D604M/DEL101-144/DEL91-95/E147F/E148K/E189Q/E196F/E230D/E231L/F201L/F214C/F374V/F533Y/G160D/G591A/G605N/I156V/I181L/I182V/I235R/I504V/I530V/I566L/I609V/I611A/INS98[…]/K146T/K150R/K151W/K237N/K239I/K346C/K506R/K518R/K521Q/K554M/K590Q/K598R/L195F/L199V/L210I/L351F/L548I/L593M/L606K/M175L/M213T/M580R/M592V/M602L/N161D/N165Y/N613A/P158Q/P173A/Q599E/Q97T/R232A/R345F/R369K/S192D/S205C/S240R/S350C/S371E/S537G/S540L/S553N/T162I/T171A/T179I/T217L/T364M/T584S/V153G/V154F/V174S/V208I/V215I/V487E/V497T/V534A/Y194N/Y197L).
T2 sequence (Q00194 with tags, fused parts or gaps DEL91-95/Q97T/INS98[…]/DEL101-144/K146T/E147F/E148K/K150R/K151W/V153G/V154F/I156V/D157S/P158Q/G160D/N161D/T162I/N165Y/C169F/T171A/P173A/V174S/M175L/T179I/I181L/I182V/E189Q/S192D/D193E/Y194N/L195F/E196F/Y197L/L199V/A200G/F201L/S205C/V208I/L210I/M213T/F214C/V215I/T217L/E230D/E231L/R232A/I235R/K237N/K239I/S240R/A344S/R345F/K346C/S350C/L351F/T364M/R369K/S371E/F374V/A378F/V487E/V497T/D502E/I504V/K506R/K518R/K521Q/I530V/F533Y/V534A/S537G/D538A/S540L/L548I/S553N/K554M/A555S/I566L/D577E/M580R/A582V/T584S/D588Q/K590Q/G591A/M592V/L593M/K598R/Q599E/M602L/D604M/G605N/L606K/I609V/I611A/A612E/N613A): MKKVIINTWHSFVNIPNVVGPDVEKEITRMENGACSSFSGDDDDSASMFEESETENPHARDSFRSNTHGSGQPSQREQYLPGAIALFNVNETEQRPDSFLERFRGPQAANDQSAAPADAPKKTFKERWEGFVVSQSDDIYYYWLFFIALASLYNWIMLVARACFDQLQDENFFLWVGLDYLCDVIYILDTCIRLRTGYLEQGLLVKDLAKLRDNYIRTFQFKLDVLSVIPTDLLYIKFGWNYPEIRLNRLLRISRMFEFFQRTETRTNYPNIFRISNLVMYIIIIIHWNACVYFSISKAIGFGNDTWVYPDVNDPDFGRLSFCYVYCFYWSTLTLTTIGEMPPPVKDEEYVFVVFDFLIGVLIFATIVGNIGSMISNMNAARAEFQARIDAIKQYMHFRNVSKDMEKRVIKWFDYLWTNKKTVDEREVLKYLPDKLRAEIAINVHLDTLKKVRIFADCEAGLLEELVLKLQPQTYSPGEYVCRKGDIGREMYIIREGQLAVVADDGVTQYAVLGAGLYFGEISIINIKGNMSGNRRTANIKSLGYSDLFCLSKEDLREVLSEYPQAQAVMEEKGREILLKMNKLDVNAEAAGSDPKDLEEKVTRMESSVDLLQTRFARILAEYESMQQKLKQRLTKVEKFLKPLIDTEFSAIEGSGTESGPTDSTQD
The assay is described as follows: Macroscopic current dose–response in inside-out patches from Xenopus oocytes. Type of assay: cell-based, chimera of bovine CNG1, catfish CNG2 and rat CNG5. To be noted: for Hill coefficient h: −100 mV.

Take `Nc1nc2c(ncn2[C@@H]2O[C@@H]3COP(=O)([O-])O[C@H]3[C@H]2O)c(=O)[nH]1.[Na+]` [cGMP]: the “agonist concentration above which desensitization occurs” value at X-αR/βC (biphasic dose–response curve) is reported as “above 3 mM”. Moreover, the Hill coefficient h is reported as 1.120 ± 0.044 on X-αR/βC (−100 mV, composite fit ± SEM, cGMP: excluding data >3 mM); 1.89 ± 0.38 (10) in the assay on ROON-S2; 1.94 ± 0.13 on X-β homomeric channels (one patch (Fig. 1C), Hill fit ± SE); 2.07 ± 0.27 (9) on X-β homomeric channels (mean ± SD of individual patches). In addition, on X-β homomeric channels (agonist up to 30 mM), the Desensitization result was “no evidence for this desensitization and No”. Further, on X-β homomeric channels (macroscopic currents), the agonist character entry is on record as “full agonists”.

The record behind these values is PMC2233835 (The Journal of General Physiology, 2001).
